Data published in article PMC6718736, “Validation of in vitro methods for human cytochrome P450 enzyme induction: Outcome of a multi-laboratory study” (Toxicology in Vitro, 2019).
“Also recorded” adds a separate entry of the source. Like-named read-outs stand apart in the source and are kept apart here. Values belong to the compound of their own block, whether it stands above or below them.

Columns and labels:
[1] = Solubility by visual inspection (DMSO stock solution and assay medium); assay type: physicochemical; conditions: assay medium
Protocol: The SOPs relied on visual inspection for solubility observation. […] The absence of precipitation in the medium was checked pre- and post-incubation (24 hours) by centrifugation of the sample and observation of any precipitation (pellet residue).

[2] = Solubility by nephelometry (EURL ECVAM); assay type: physicochemical; conditions: ECVAM nephelometry, ^2 = solubility limit
Text: In addition to the visual inspection performed by the validation laboratories as described in the SOP, EURL ECVAM introduced nephelometry for systematic solubility determination of the 13 validation set chemicals. Nephelometry uses a laser beam and the principle of Tyndall effect light scatter to detect turbidity due to insolubility. The nephelometer method used formazin as reference item (1, 5, 10 and 20 nephelometric turbidity units (NTU)) to calculate the relative turbidity (RTU) of the validation set of chemicals. To the naked eye, 20 NTU is perceptible, while the nephelometer was sensitive to 5 NTU, with 1 NTU equivalent to background (solvent/medium blank).

[3] = cited from earlier work
CYP1A2 [4] = conditions: cited from earlier work
CYP2B6 [5] = assay: CYP2B6 enzyme induction assay in cryopreserved primary human hepatocytes (PHH); assay type: in vitro ADME; conditions: for Assigned classification CYP2B6: PHH;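 as to Assigned classification CYP2B6: code 1 means positive inducer and 0 means non-inducer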
CYP1A2 [6] = assay: CYP1A2 enzyme induction assay in cryopreserved primary human hepatocytes (PHH); assay type: in vitro ADME; conditions: for Prediction in vivo inducer: Cmax/F2 >0.5 criterion; for Assigned classification CYP1A2: PHH;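 as to Assigned classification CYP1A2: code 1 means positive inducer and 0 means non-inducer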
CYP1A2 [7] = assay: CYP1A2 enzyme induction assay in cryopreserved HepaRG cells (phenacetin probe, LC/MS); assay type: in vitro ADME, human; conditions: for Assigned classification CYP1A2: HepaRG; as to Assigned classification CYP1A2: key: 1=Positive=inducer; 0=Negative=non-inducer
CYP2B6 [8] = assay: CYP2B6 enzyme induction assay in cryopreserved HepaRG cells (bupropion probe, LC/MS); assay type: in vitro ADME, human; conditions: for Prediction in vivo inducer: Cmax/F2 >0.5 criterion; for Assigned classification CYP2B6: HepaRG; as to Assigned classification CYP2B6: key: 1=Positive=inducer; 0=Negative=non-inducer
CYP2B6 [9] = conditions: cited from earlier work
[10] = human in vivo plasma concentration, normal dose
[11] = human in vivo, normal dose (Table 10)
[12] = human in vivo, CYP named without remark = induced, ref references in the cell, Washington University database, Hoffmann et al. (2014), Pelkonen et al. (2008), Hukkanen et al. (2012)

- HepaRG medium stability ([1]; Lab 1, visual observation): 40 µg/mL
- HepaRG medium stability ([1]; Lab 2, visual observation): 40 µg/mL
- HepaRG medium stability ([1]; Lab 3, visual observation): 40 µg/mL
- PHH medium stability ([1]; Lab 4, visual observation): 40 µg/mL
- PHH medium stability ([1]; Lab 5, visual observation): 40 µg/mL
- PHH medium stability ([1]; Lab 6, visual observation): 20 µg/mL
- HepaRG medium stability ([2]; HepaRG medium): 40 µg/mL
- PHH medium stability ([2]; PHH medium): 40 µg/mL
Structure (SMILES): CC1(C)S[C@@H]2[C@H](NC(=O)Cc3ccccc3)C(=O)N2[C@H]1C(=O)O [Penicillin G sodium]
- Cmax [3, 10]: 36 µM
- Cmax [3, 11]: 36 µM

- F2 (CYP2B6 [5]; CYP2B6, PHH): 0.2 µM
- Induction in vitro (CYP2B6 [5]; CYP2B6, PHH): Yes
- Prediction in vivo inducer (CYP2B6 [5]; CYP2B6, PHH): Yes
- Prediction in vivo inducer (CYP2B6 [5]; CYP2B6, PHH, Cmax/F2 >0.5 criterion): positive
- Assigned classification CYP2B6 (CYP2B6 [5]; Lab 1, batch 0 6 A): 1
- Assigned classification CYP2B6 (CYP2B6 [5]; Lab 1, batch 4 0 8): 1
- Assigned classification CYP2B6 (CYP2B6 [5]; Lab 1, batch 8 0 8): 1
- Assigned classification CYP2B6 (CYP2B6 [5]; Lab 2, batch 0 6 A): 1
- Assigned classification CYP2B6 (CYP2B6 [5]; Lab 2, batch 4 0 8): 0
- Assigned classification CYP2B6 (CYP2B6 [5]; Lab 2, batch 8 0 8): 1
- Assigned classification CYP2B6 (CYP2B6 [5]; Lab 3, batch 0 6 A): 1
- Assigned classification CYP2B6 (CYP2B6 [5]; Lab 3, batch 4 0 8): 1
- Assigned classification CYP2B6 (CYP2B6 [5]; Lab 3, batch 8 0 8): 1
- Prediction in vivo inducer (CYP1A2 [6]; CYP1A2, PHH): No
- Induction in vitro (CYP1A2 [6]; CYP1A2, PHH, positive in one donor in each of the three laboratories): No
- Assigned classification CYP1A2 (CYP1A2 [6]; Lab 1, batch 0 6 A): 0
- Assigned classification CYP1A2 (CYP1A2 [6]; Lab 1, batch 4 0 8): 0
- Assigned classification CYP1A2 (CYP1A2 [6]; Lab 1, batch 8 0 8): 0
- Assigned classification CYP1A2 (CYP1A2 [6]; Lab 2, batch 0 6 A): 0
- Assigned classification CYP1A2 (CYP1A2 [6]; Lab 2, batch 4 0 8): 0
- Assigned classification CYP1A2 (CYP1A2 [6]; Lab 2, batch 8 0 8): 1
- Assigned classification CYP1A2 (CYP1A2 [6]; Lab 3, batch 0 6 A): 1
- Assigned classification CYP1A2 (CYP1A2 [6]; Lab 3, batch 4 0 8): 0
- Assigned classification CYP1A2 (CYP1A2 [6]; Lab 3, batch 8 0 8): 0
- Prediction in vivo inducer (CYP1A2 [7]; CYP1A2, HepaRG cells, Cmax/F2 >0.5 criterion): Yes
- F2 (CYP1A2 [7]; CYP1A2, HepaRG cells, in vitro concentration producing 2-fold induction): 0.20 to 0.60 µM
- Induction in vitro (CYP1A2 [7]; CYP1A2, HepaRG cells, positive in one batch in each of the three laboratories): Yes
- Assigned classification CYP1A2 (CYP1A2 [7]; Lab 1, batch 20): 1
- Assigned classification CYP1A2 (CYP1A2 [7]; Lab 1, batch 35): 1
- Assigned classification CYP1A2 (CYP1A2 [7]; Lab 1, batch 36): 1
- Assigned classification CYP1A2 (CYP1A2 [7]; Lab 2, batch 20): 1
- Assigned classification CYP1A2 (CYP1A2 [7]; Lab 2, batch 35): 1
- Assigned classification CYP1A2 (CYP1A2 [7]; Lab 2, batch 36): 1
- Assigned classification CYP1A2 (CYP1A2 [7]; Lab 3, batch 20): 1
- Assigned classification CYP1A2 (CYP1A2 [7]; Lab 3, batch 35): 1
- Assigned classification CYP1A2 (CYP1A2 [7]; Lab 3, batch 36): 1
- Prediction in vivo inducer (CYP2B6 [8]; CYP2B6, HepaRG cells): Yes
- Prediction in vivo inducer (CYP2B6 [8]; CYP2B6, HepaRG cells, listed as rifampicin): correctly classified
- F2 (CYP2B6 [8]; CYP2B6, HepaRG cells, in vitro concentration producing 2-fold induction): 0.6 to 1.80 µM
- Induction in vitro (CYP2B6 [8]; CYP2B6, HepaRG cells, positive in one batch in each of the three laboratories): Yes
- Assigned classification CYP2B6 (CYP2B6 [8]; Lab 1, batch 20): 0
- Assigned classification CYP2B6 (CYP2B6 [8]; Lab 1, batch 35): 1
- Assigned classification CYP2B6 (CYP2B6 [8]; Lab 1, batch 36): 0
- Assigned classification CYP2B6 (CYP2B6 [8]; Lab 2, batch 20): 1
- Assigned classification CYP2B6 (CYP2B6 [8]; Lab 2, batch 35): 0
- Assigned classification CYP2B6 (CYP2B6 [8]; Lab 2, batch 36): 1
- Assigned classification CYP2B6 (CYP2B6 [8]; Lab 3, batch 20): 0
- Assigned classification CYP2B6 (CYP2B6 [8]; Lab 3, batch 35): 0
- Assigned classification CYP2B6 (CYP2B6 [8]; Lab 3, batch 36): 1
Structure (SMILES): CO[C@H]1/C=C/O[C@@]2(C)Oc3c(C)c(O)c4c(O)c(c(/C=N/N5CCN(C)CC5)c(O)c4c3C2=O)NC(=O)/C(C)=C\C=C\[C@H](C)[C@H](O)[C@@H](C)[C@@H](O)[C@@H](C)[C@H](OC(C)=O)[C@@H]1C [Rifampicin]
- Induction in vivo (CYP1A2 [4]; CYP1A2, human, ref Table 1): Yes
- CYP induction in vivo literature reference: CYP1A2 (CYP1A2 [4]; [12]): CYP1A2
- Prediction in vivo inducer (CYP1A2 [6]; CYP1A2, PHH, listed as rifampicin): non-inducer; also recorded: missed the in vivo prediction
- Cmax [3, 10]: 8 to 12 µM
- Cmax [3, 11]: 8 to 12 µM
- Induction in vivo (CYP2B6 [9]; CYP2B6, human in vivo reference classification): Yes
- Induction in vivo (CYP2B6 [9]; CYP2B6, human, ref Table 1): Yes
- CYP induction in vivo literature reference: CYP2B6 (CYP2B6 [9]; [12]): CYP2B6
